Assay results published in patent US20130150325A1, “3-(Fluorovinyl)pyrazoles and their use” (BAYER INTELLECTUAL PROPERTY GMBH, priority 2011, published 2013).

Tested on: HCT 116 cells transfected with a luciferase reporter under the control of an HIF-responsive sequence
Test: HIF-luciferase assay
Assay type: cell-based
Details: Homo sapiens; HCT 116 HIF-luciferase reporter cells, hypoxia chamber (1% O2), 24 h; in some cases means of up to four individual determinations
Experimental: HCT 116 cells were transfected in a stable manner with a plasmid which contained a luciferase reporter under the control of an HIF-responsive sequence. These cells were sown in microtitre plates [20 000 cells/cavity in RPMI 1640 medium with 10% foetal calf serum (FCS) and 100 μg/ml of hygromycin]. Incubation was carried out overnight under standard conditions (5% CO2, 21% O2, 37° C., moistened). The following morning the cells were incubated with various concentrations of the test substances (0-10 μmol/l) in a hypoxia chamber (1% O2). After 24 h, Bright Glo reagent (Promega, Wisconsin, USA) was added in accordance with the manufacturer's instructions, and after 5 min the luminescence was measured. Cells which were incubated under normoxia served as background controls.
The IC50 values from this assay for representative working examples are listed in the following table (in same cases as means of up to four individual determinations): […]

SMILES	IC50
CNc1ccc(Cn2nc(/C(F)=C/c3ccc(C(F)(F)F)cc3)cc2C)cn1 [Example 85, 5-[(3-{(Z)-1-Fluoro-2-[4-(trifluoromethyl)phenyl]vinyl}-5-methyl-1H-pyrazol-1-yl)methyl]-N-methylpyridine-2-amine]	4 nM
Cc1ccc(Cn2nc(/C(F)=C/c3ccc(OC(F)(F)F)cc3)cc2C)cc1 [Example 2, 3-{(Z)-1-Fluoro-2-[4-(trifluoromethoxy)phenyl]vinyl}-5-methyl-1-(4-methylbenzyl)-1H-pyrazole]	30 nM
Cc1cc(/C(F)=C/c2ccc(C(C)(C)C(F)(F)F)cc2)nn1Cc1cccc(Br)c1 [Example 7, 1-(3-Bromobenzyl)-3-{(Z)-1-fluoro-2-[4-(1,1,1-trifluoro-2-methylpropan-2-yl)phenyl]vinyl}-5-methyl-1H-pyrazole]	40 nM
Cc1cc(/C(F)=C/c2ccc(C(O)(C(F)(F)F)C(F)(F)F)cc2)nn1Cc1ccnc(N2CCN(C3CC3)CC2)c1 [Example 108, 2-{4-[(Z)-2-(1-{[2-(4-Cyclopropylpiperazin-1-yl)pyridin-4-yl]methyl}-5-methyl-1H-pyrazol-3-yl)-2-fluorovinyl]phenyl}-1,1,1,3,3,3-hexafluoropropan-2-ol]	3 nM
CNc1ccc(Cn2nc(/C(F)=C/c3ccc(CC(C)C)cc3)cc2C)cn1 [Example 90, 5-({3-[(Z)-1-Fluoro-2-(4-isobutylphenyl)vinyl]-5-methyl-1H-pyrazol-1-yl}methyl)-N-methyl-pyridine-2-amine]	2 nM
Cc1cc(/C(F)=C/c2ccc(OC(F)(F)F)cc2)nn1Cc1ccnc(N2CCN(C3CC3)CC2)c1 [Example 102, 1-Cyclopropyl-4-{4-[(3-{(Z)-1-fluoro-2-[4-(trifluoromethoxy)phenyl]vinyl}-5-methyl-1H-pyrazol-1-yl)methyl]pyridin-2-yl}piperazine]	0.5 nM
Cc1cc(/C(F)=C/c2ccc(C(C)(C)C(F)(F)F)c(F)c2)nn1Cc1cccc(C2(O)CC2)c1 [Example 50, 1-{3-[(3-{(Z)-1-Fluoro-2-[3-fluoro-4-(1,1,1-trifluoro-2-methylpropan-2-yl)phenyl]vinyl}-5-methyl-1H-pyrazol-1-yl)methyl]phenyl}cyclopropanol]	1 nM
Cc1cc(/C(F)=C/c2ccc(C(F)(F)F)cc2)nn1Cc1cccc(C(=O)N2CCC(O)CC2)c1 [Example 36, {3-[(3-{(Z)-1-Fluoro-2-[4-(trifluoromethyl)phenyl]vinyl}-5-methyl-1H-pyrazol-1-yl)methyl]-phenyl}(4-hydroxypiperidin-1-yl)methanone]	4 nM
Cc1cc(/C(F)=C/c2ccc(C(F)(F)F)cc2)nn1Cc1cccc(C(=O)N2CCN(C3CC3)CC2)c1 [Example 41, (4-Cyclopropylpiperazin-1-yl) {3-[(3-{(Z)-1-fluoro-2-[4-(trifluoromethyl)phenyl]vinyl}-5-methyl-1H-pyrazol-1-yl)methyl]phenyl}methanone]	3 nM
Cc1cc(/C(F)=C/c2ccc(SC(F)(F)F)cc2)nn1Cc1cccc(C(=O)N2CCN(C3CC3)CC2)c1 [Example 38, (4-Cyclopropylpiperazin-1-yl)[3-({3-[(Z)-1-fluoro-2-{4-[(trifluoromethyl)sulphanyl]phenyl}vinyl]-5-methyl-1H-pyrazol-1-yl}methyl)phenyl]methanone]	4 nM
Cc1cc(/C=C(\F)c2ccc(OC(F)(F)F)cc2)nn1Cc1cccc(C(=O)N2CCCC2)c1 [Example 114, {3-[(3-{(Z)-2-Fluoro-2-[4-(trifluoromethoxy)phenyl]vinyl}-5-methyl-1H-pyrazol-1-yl)methyl]-phenyl}(pyrrolidin-1-yl)methanone]	40 nM
Cc1cc(/C=C(\F)c2ccc(OC(F)(F)F)cc2)nn1Cc1cccc(C(C)(C)O)c1 [Example 121, 2-{3-[(3-{(Z)-2-Fluoro-2-[4-(trifluoromethoxy)phenyl]vinyl}-5-methyl-1H-pyrazol-1-yl)methyl]phenyl}propan-2-ol]	40 nM
Cc1cc(/C(F)=C/c2ccc(C3(C(F)(F)F)CC3)cc2)nn1Cc1cccc(N2CC(O)C2)c1 [Example 17, 1-[3-({3-[(Z)-1-Fluoro-2-{4-[1-(trifluoromethyl)cyclopropyl]phenyl}vinyl]-5-methyl-1H-pyrazol-1-yl}methyl)phenyl]azetidin-3-ol]	1 nM
Cc1cc(/C(F)=C/c2ccc(SC(F)(F)F)cc2)nn1Cc1cccc(C(=O)N2CCC(O)CC2)c1 [Example 33, [3-({3-[(Z)-1-Fluoro-2-{4-[(trifluoromethyl)sulphanyl]phenyl}vinyl]-5-methyl-1H-pyrazol-1-yl}-methyl)phenyl](4-hydroxypiperidin-1-yl)methanone]	4 nM
CCNc1ccc(Cn2nc(/C(F)=C/c3ccc(C(C)(C)C(F)(F)F)cc3)cc2C)cn1 [Example 96, N-Ethyl-5-[(3-{(Z)-1-fluoro-2-[4-(1,1,1-trifluoro-2-methylpropan-2-yl)phenyl]vinyl}-5-methyl-1H-pyrazol-1-yl)methyl]pyridine-2-amine]	1 nM
CNc1ccc(Cn2nc(/C(F)=C/c3ccc(C(C)(C)C)cc3)cc2C)cn1 [Example 87, 5-({3-[(Z)-2-(4-tert-Butylphenyl)-1-fluorovinyl]-5-methyl-1H-pyrazol-1-yl}methyl)-N-methylpyridine-2-amine]	0.7 nM
Cc1cc(/C(F)=C/c2ccc(OC(F)(F)F)cc2)nn1Cc1cccc(C2(CO)CC2)c1 [Example 55, (1-{3-[(3-{(Z)-1-Fluoro-2-[4-(trifluoromethoxy)phenyl]vinyl}-5-methyl-1H-pyrazol-1-yl)methyl]-phenyl}cyclopropyl)methanol]	4 nM
CCNc1ccc(Cn2nc(/C(F)=C/c3ccc(C(O)(C(F)(F)F)C(F)(F)F)cc3)cc2C)cn1 [Example 97, 2-{4-[(Z)-2-(1-{[6-(Ethylamino)pyridin-3-yl]methyl}-5-methyl-1H-pyrazol-3-yl)-2-fluorovinyl]-phenyl}-1,1,1,3,3,3-hexafluoropropan-2-ol]	20 nM
CC(=O)OC1(c2cccc(Cn3nc(/C(F)=C/c4ccc(OC(F)(F)F)cc4)cc3C)c2)CC1 [Example 43, 1-{3-[(3-{(Z)-1-Fluoro-2-[4-(trifluoromethoxy)phenyl]vinyl}-5-methyl-1H-pyrazol-1-yl)methyl]phenyl}cyclopropyl acetate]	2 nM
CC(=O)OC1(c2cccc(Cn3nc(/C(F)=C/c4ccc(C5(C(F)(F)F)CC5)cc4)cc3C)c2)CC1 [Example 46, 1-[3-({3-[(Z)-1-Fluoro-2-{4-[1-(trifluoromethyl)cyclopropyl]phenyl}vinyl]-5-methyl-1H-pyrazol-1-yl}methyl)phenyl]cyclopropyl acetate]	0.7 nM
Cc1cc(/C(F)=C/c2ccc(S(F)(F)(F)(F)F)cc2)nn1Cc1ccnc(N2CCN(C3CC3)CC2)c1 [Example 107, 1-Cyclopropyl-4-{4-[(3-{(Z)-1-fluoro-2-[4-(pentafluoro-λ^6-sulphanyl)phenyl]vinyl}-5-methyl-1H-pyrazol-1-yl)methyl]pyridin-2-yl}piperazine]	0.3 nM
Cc1cc(/C(F)=C/c2ccc(C3(C(F)(F)F)CC3)cc2)nn1Cc1cccc(N2CCC(O)CC2)c1 [Example 14, 1-[3-({3-[(Z)-1-Fluoro-2-{4-[1-(trifluoromethyl)cyclopropyl]phenyl}vinyl]-5-methyl-1H-pyrazol-1-yl}methyl)phenyl]piperidin-4-ol]	0.2 nM
Cc1cc(/C(F)=C/c2ccc(C(C)(C)C(F)(F)F)cc2)nn1Cc1cccc(C(=O)N2CCC(O)CC2)c1 [Example 34, {3-[(3-{(Z)-1-Fluoro-2-[4-(1,1,1-trifluoro-2-methylpropan-2-yl)phenyl]vinyl}-5-methyl-1H-pyrazol-1-yl)methyl]phenyl}(4-hydroxypiperidin-1-yl)methanone]	5 nM
CCNC(=O)C(C)(C)Sc1ccc(/C=C(\F)c2cc(C)n(Cc3ccc(NC)nc3)n2)cc1 [Example 92, N-Ethyl-2-({4-[(Z)-2-fluoro-2-(5-methyl-1-{[6-(methylamino)pyridin-3-yl]methyl}-1H-pyrazol-3-yl)vinyl]phenyl}sulphanyl)-2-methylpropanamide]	5 nM
Cc1cc(/C(F)=C/c2ccc(C(C)(C)C(F)(F)F)cc2)nn1Cc1cccc(CC(C)(C)O)c1 [Example 64, 1-{3-[(3-{(Z)-1-Fluoro-2-[4-(1,1,1-trifluoro-2-methylpropan-2-yl)phenyl]vinyl}-5-methyl-1H-pyrazol-1-yl)methyl]phenyl}-2-methylpropan-2-ol]	2 nM
Cc1cc(/C(F)=C/c2ccc(OC(F)(F)F)cc2)nn1Cc1cccc(C(=O)N2CCOCC2)c1 [Example 31, {3-[(3-{(Z)-1-Fluoro-2-[4-(trifluoromethoxy)phenyl]vinyl}-5-methyl-1H-pyrazol-1-yl)methyl]-phenyl}(morpholin-4-yl)methanone]	3 nM
Cc1cc(/C(F)=C/c2ccc(OC(F)(F)F)cc2)nn1Cc1cccc(N2CC(O)C2)c1 [Example 15, 1-{3-[(3-{(Z)-1-Fluoro-2-[4-(trifluoromethoxy)phenyl]vinyl}-5-methyl-1H-pyrazol-1-yl)methyl]phenyl}azetidin-3-ol]	2 nM
CNc1ccc(Cn2nc(/C(F)=C/c3ccc(C4CCCCC4)cc3)cc2C)cn1 [Example 88, 5-({3-[(Z)-2-(4-Cyclohexylphenyl)-1-fluorovinyl]-5-methyl-1H-pyrazol-1-yl}methyl)-N-methylpyridine-2-amine]	2 nM
Cc1cc(/C(F)=C/c2ccc(C(C)(C)C(F)(F)F)cc2)nn1Cc1cccc(C(C)(C)O)c1 [Example 54, 2-{3-[(3-{(Z)-1-Fluoro-2-[4-(1,1,1-trifluoro-2-methylpropan-2-yl)phenyl]vinyl}-5-methyl-1H-pyrazol-1-yl)methyl]phenyl}propan-2-ol]	3 nM
